Test results reported in PMC5100001, “Defining the extreme substrate specificity of Euonymus alatus diacylglycerol acetyltransferase, an unusual membrane-bound O-acyltransferase” (Bioscience Reports, 2016).

Biological target: T1, EaDAcT (Euonymus alatus diacylglycerol acetyltransferase) (Euonymus alatus, UniProt D6NSS8)
T1 construct: gene DAcT; full-length ORF in microsomes of S. cerevisiae H1246 (quadruple knockout); C-terminal HA tag printed for the pESC-URA coexpression construct; N-terminus MDAHQEIK translated from printed primer
Experiment: microsomal acyltransferase assay, ESI-MS quantification of sn-3 acyl TAG
Type: biochemical
Conditions: acyl donor 50 to 1500 uM, endogenous sn-1,2-DAG as acceptor, pH 7.5, 30 C

T1 sequence (D6NSS8 entry or part of it): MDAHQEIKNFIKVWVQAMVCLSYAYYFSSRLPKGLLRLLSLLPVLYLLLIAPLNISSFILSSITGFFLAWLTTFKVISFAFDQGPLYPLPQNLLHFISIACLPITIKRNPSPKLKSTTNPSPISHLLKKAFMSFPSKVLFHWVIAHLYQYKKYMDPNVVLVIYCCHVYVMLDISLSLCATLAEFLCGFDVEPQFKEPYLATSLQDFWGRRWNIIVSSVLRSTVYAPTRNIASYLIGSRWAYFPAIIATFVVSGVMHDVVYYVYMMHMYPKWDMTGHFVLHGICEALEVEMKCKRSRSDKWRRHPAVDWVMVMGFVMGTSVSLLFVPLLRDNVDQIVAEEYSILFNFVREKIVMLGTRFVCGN

CC(=O)SCCNC(=O)CCNC(=O)[C@H](O)C(C)(C)COP(=O)(O)OP(=O)(O)OC[C@H]1O[C@@H](n2cnc3c(N)ncnc32)[C@H](O)[C@@H]1OP(=O)(O)O [acetyl-CoA]
microsomal acyltransferase assay, ESI-MS quantification of sn-3 acyl TAG ([1,2-13C] labelled compound): higher rates of production formation were always achieved with acetyl-CoA compared with butyryl- or hexanoyl-CoA

CCCC(=O)SCCNC(=O)CCNC(=O)[C@H](O)C(C)(C)COP(=O)(O)OP(=O)(O)OC[C@H]1O[C@@H](n2cnc3c(N)ncnc32)[C@H](O)[C@@H]1OP(=O)(O)O [butyryl-CoA]
microsomal acyltransferase assay, ESI-MS quantification of sn-3 acyl TAG (unlabelled): Reaction rates with butyryl-CoA and hexanoyl-CoA were relatively similar to one another
